Laboratory results: US10316017B2, “COT modulators and methods of use thereof” (Gilead Sciences, Inc., priority 2015, dated 2019)
Values belong to the compound of their own block, whether it stands above or below them.

Legend:
[1] = tested on: TNFα production in LPS-stimulated human monocytes; experiment: Cot Monocyte TNFα Cell Based Assay; settings: Homo sapiens, Monocyte, LPS-stimulated human monocytes, TNFα TR-FRET; read-out: EC50 TNF
Summary of the method: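 TR-FRET read-out of total secreted TNFα, normalized as % control (unstimulated = 0%, LPS-stimulated = 100%). Cells (5,000/well) were exposed to compound 1 h at 37 °C, then to 50 pg/ml LPS for a further 4 h.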

[2] = molecular target: T1, human Cot catalytic domain (30-397 amino acids) (Homo sapiens, UniProt P41279); experiment: High Throughput Cot Biochemical Assay (KinEASE TR-FRET); settings: Cot KinEASE TR-FRET, 400 μM ATP; read-out: IC50 HTRF
T1 construct: Purified recombinant human Cot catalytic domain (30-397 amino acids) was purchased from Cama Biosciences; purchased Cama Biosciences (so in the source)
T1 sequence (P41279 30-397): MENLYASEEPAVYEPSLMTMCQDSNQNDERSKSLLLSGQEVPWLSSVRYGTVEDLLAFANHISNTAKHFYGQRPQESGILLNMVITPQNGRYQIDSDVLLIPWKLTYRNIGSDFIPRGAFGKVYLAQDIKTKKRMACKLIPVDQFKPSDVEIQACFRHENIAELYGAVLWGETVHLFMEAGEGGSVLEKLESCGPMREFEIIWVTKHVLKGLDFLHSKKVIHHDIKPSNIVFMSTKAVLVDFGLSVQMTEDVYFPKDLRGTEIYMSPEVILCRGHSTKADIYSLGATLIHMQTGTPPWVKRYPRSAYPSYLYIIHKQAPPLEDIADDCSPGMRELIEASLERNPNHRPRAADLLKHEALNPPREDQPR
Summary of the method: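 TR-FRET readout: Eu-labeled phospho-specific antibody binds XL665-tagged STK3 peptide after phosphorylation by Cot (aa 30-397, 5 nM). Conditions: 400 μM ATP, 1 μM peptide, MOPS pH 7.0 buffer with MgOAc, DTT, BSA, NP-40, glycerol; 0.1% DMSO.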

SMILES: Cc1c(C#N)cccc1[C@H](Nc1cc(Cl)c2ncc(C#N)c(NCC(C)(C)C(F)(F)F)c2c1)c1cn(C23CC(C2)C3)nn1 [Example 1107, (S)-6-(((1-(bicyclo[1.1.1]pentan-1-yl)-1H-1,2,3-triazol-4-yl)(3-cyano-2-methylphenyl)methyl)amino)-8-chloro-4-((3,3,3-trifluoro-2,2-dimethylpropyl)amino) quinoline-3-carbonitrile]
EC50 [1]: 65 nM | IC50 [2]: 3 nM

SMILES: Cc1c(C#N)cccc1[C@H](Nc1cc(Cl)c2ncc(C#N)c(NCC(C)(C)C)c2c1)c1cn(C23CC(C2)C3)nn1 [Example 1108, (S)-6-(((1-(bicyclo[1.1.1]pentan-1-yl)-1H-1,2,3-triazol-4-yl)(3-cyano-2-methylphenyl)methyl)amino)-8-chloro-4-(neopentylamino) quinoline-3-carbonitrile]
EC50 [1]: 31 nM | IC50 [2]: 4 nM

SMILES: Cc1c(C#N)cccc1[C@H](Nc1cc(Cl)c2ncc(C#N)c(NCC(C)(C)C)c2c1)c1cn(C2(C3CC3)CC2)nn1 [Example 1109, (S)-6-(((1-([1,1'-bi(cyclopropan)]-1-yl)-1H-1,2,3-triazol-4-yl)(3-cyano-2-methylphenyl)-methyl)amino)-8-chloro-4-(neopentylamino)quinoline-3-carbonitrile]
EC50 [1]: 57 nM | IC50 [2]: 5 nM

SMILES: Cc1nnc(C2(n3cc([C@@H](Nc4cc(Cl)c5ncc(C#N)c(NCC(C)(C)C)c5c4)c4ccccc4Cl)nn3)CC2)o1 [Example 1110, (S)-8-chloro-6-(((2-chlorophenyl)(1-(1-(5-methyl-1,3,4-oxadiazol-2-yl)cyclopropyl)-1H-1,2,3-triazol-4-yl)methyl)amino)-4-(neopentylamino)quinoline-3-carbonitrile]
EC50 [1]: 79 nM | IC50 [2]: 26 nM

SMILES: [2H]C(Nc1cc(C#N)c2ncc(C#N)c(NCC(C)(C)C)c2c1)(c1cn(C2(C(F)F)CC2)nn1)c1ccccc1Cl (centres unmarked) [Example 1111, 6-(((2-chlorophenyl)(1-(1-(difluoromethyl)cyclopropyl)-1H-1,2,3-triazol-4-yl)methyl-d)amino)-4-(neopentylamino)-quinoline-3,8-dicarbonitrile]
EC50 [1]: 98 nM | IC50 [2]: 13 nM

SMILES: CC(C)(C)CNc1c(C#N)cnc2c(Cl)cc(N[C@H](c3cn(C4(C(F)(F)F)CC4)nn3)c3cccc(C(=O)O)c3F)cc12 [Example 1112, (S)-3-(((8-chloro-3-cyano-4-(neopentylamino)quinolin-6-yl)amino)(1-(1-(trifluoromethyl)cyclopropyl)-1H-1,2,3-triazol-4-yl)methyl)-2-fluorobenzoic acid]
EC50 [1]: ≥ 1000 nM | IC50 [2]: 76 nM

SMILES: CN(C)C(=O)c1cccc([C@H](Nc2cc(Cl)c3ncc(C#N)c(NCC(C)(C)C)c3c2)c2cn(C3(C(F)(F)F)CC3)nn2)c1F [Example 1113, (S)-3-(((8-chloro-3-cyano-4-(neopentylamino)quinolin-6-yl)amino)(1-(1-(trifluoromethyl)cyclopropyl)-1H-1,2,3-triazol-4-yl)methyl)-2-fluoro-N,N-dimethylbenzamide]
EC50 [1]: 444 nM | IC50 [2]: 22 nM

SMILES: CNC(=O)c1cccc([C@H](Nc2cc(Cl)c3ncc(C#N)c(NCC(C)(C)C)c3c2)c2cn(C3(C(F)(F)F)CC3)nn2)c1F [Example 1114, (S)-3-(((8-chloro-3-cyano-4-(neopentylamino)quinolin-6-yl)amino)(1-(1-(trifluoromethyl)cyclopropyl)-1H-1,2,3-triazol-4-yl)methyl)-2-fluoro-N-methylbenzamide]
EC50 [1]: 408 nM | IC50 [2]: 5 nM

Other lines, results leading:

EC50 [1]: 176 nM | IC50 [2]: 6 nM
SMILES: CC(C)(C)CNc1c(C#N)cnc2c(Cl)cc(N[C@H](c3cn(C4(C(F)(F)F)CC4)nn3)c3cccc(C(N)=O)c3F)cc12 [Example 1115, (S)-3-(((8-chloro-3-cyano-4-(neopentylamino)quinolin-6-yl)amino)(1-(1-(trifluoromethyl)cyclopropyl)-1H-1,2,3-triazol-4-yl)methyl)-2-fluorobenzamide]

EC50 [1]: ≥ 1000 nM | IC50 [2]: 38 nM
SMILES: CNC(=O)c1cc([C@H](Nc2cc(Cl)c3ncc(C#N)c(NCC(C)(C)C)c3c2)c2cn(C3(C(F)(F)F)CC3)nn2)ccc1F [Example 1116, (S)-5-(((8-chloro-3-cyano-4-(neopentylamino)quinolin-6-yl)amino)(1-(1-(trifluoromethyl)cyclopropyl)-1H-1,2,3-triazol-4-yl)methyl)-2-fluoro-N-methylbenzamide]

EC50 [1]: 561 nM | IC50 [2]: 29 nM
SMILES: CC(C)(C)CNc1c(C#N)cnc2c(Cl)cc(N[C@@H](c3ccc(F)c(C(N)=O)c3)c3cn(C4(C(F)(F)F)CC4)nn3)cc12 [Example 1117, (S)-5-(((8-chloro-3-cyano-4-(neopentylamino)quinolin-6-yl)amino)(1-(1-(trifluoromethyl)cyclopropyl)-1H-1,2,3-triazol-4-yl)methyl)-2-fluorobenzamide]

EC50 [1]: 921 nM | IC50 [2]: 28 nM
SMILES: Cc1c(-c2ccccn2)cccc1[C@H](Nc1cc(Cl)c2ncc(C#N)c(NCC(C)(C)C)c2c1)c1cn(C2(C(F)(F)F)CC2)nn1 [Example 1118, (S)-8-chloro-6-(((2-methyl-3-(pyridin-2-yl)phenyl)(1-(1-(trifluoromethyl)cyclopropyl)-1H-1,2,3-triazol-4-yl)methyl)amino)-4-(neopentylamino)quinoline-3-carbonitrile]

EC50 [1]: 351 nM | IC50 [2]: 11 nM
SMILES: Cc1c(-c2cn(C)cn2)cccc1[C@H](Nc1cc(Cl)c2ncc(C#N)c(NCC(C)(C)C)c2c1)c1cn(C2(C(F)(F)F)CC2)nn1 [Example 1119, (S)-8-chloro-6-(((2-methyl-3-(1-methyl-1H-imidazol-4-yl)phenyl)(1-(1-(trifluoromethyl)cyclopropyl)-1H-1,2,3-triazol-4-yl)methyl)amino)-4-(neopentylamino)quinoline-3-carbonitrile]

EC50 [1]: 88 nM | IC50 [2]: 6 nM
SMILES: Cc1c(-c2cncn2C)cccc1[C@H](Nc1cc(Cl)c2ncc(C#N)c(NCC(C)(C)C)c2c1)c1cn(C2(C(F)(F)F)CC2)nn1 [Example 1120, (S)-8-chloro-6-(((2-methyl-3-(1-methyl-1H-imidazol-5-yl)phenyl)(1-(1-(trifluoromethyl)cyclopropyl)-1H-1,2,3-triazol-4-yl)methyl)amino)-4-(neopentylamino)quinoline-3-carbonitrile]

EC50 [1]: 59 nM | IC50 [2]: 2 nM
SMILES: Cc1c(-c2ccnnc2)cccc1[C@H](Nc1cc(Cl)c2ncc(C#N)c(NCC(C)(C)C)c2c1)c1cn(C2(C(F)(F)F)CC2)nn1 [Example 1121, (S)-8-chloro-6-(((2-methyl-3 (pyridazin-4-yl)phenyl)(1-(1-(trifluoromethyl)cyclopropyl)-1H-1,2,3-triazol-4-yl)methyl)amino)-4-(neopentylamino)quinoline-3-carbonitrile]

EC50 [1]: 47 nM | IC50 [2]: 2 nM
SMILES: Cc1c(-c2cncn2C)cccc1[C@H](Nc1cc(Cl)c2ncc(C#N)c(NCC(C)(C)C)c2c1)c1cn(C2(C(F)F)CC2)nn1 [Example 1122, (S)-8-chloro-6-(((1-(1-(difluoromethyl)cyclopropyl)-1H-1,2,3-triazol-4-yl)(2-methyl-3-(1-methyl-1H-imidazol-5-yl)phenyl)methyl)amino)-4-(neopentylamino)quinoline-3-carbonitrile]
